In ChEMBL document CHEMBL4418494, “Small molecule inhibitors of AGBL2” (2015):
The source made the active and inactive calls. No cut-off for these calls is given here.

Target: T1, Cytosolic carboxypeptidase 2 (Homo sapiens) (UniProt Q5U5Z8)
T1 sequence (whole entry): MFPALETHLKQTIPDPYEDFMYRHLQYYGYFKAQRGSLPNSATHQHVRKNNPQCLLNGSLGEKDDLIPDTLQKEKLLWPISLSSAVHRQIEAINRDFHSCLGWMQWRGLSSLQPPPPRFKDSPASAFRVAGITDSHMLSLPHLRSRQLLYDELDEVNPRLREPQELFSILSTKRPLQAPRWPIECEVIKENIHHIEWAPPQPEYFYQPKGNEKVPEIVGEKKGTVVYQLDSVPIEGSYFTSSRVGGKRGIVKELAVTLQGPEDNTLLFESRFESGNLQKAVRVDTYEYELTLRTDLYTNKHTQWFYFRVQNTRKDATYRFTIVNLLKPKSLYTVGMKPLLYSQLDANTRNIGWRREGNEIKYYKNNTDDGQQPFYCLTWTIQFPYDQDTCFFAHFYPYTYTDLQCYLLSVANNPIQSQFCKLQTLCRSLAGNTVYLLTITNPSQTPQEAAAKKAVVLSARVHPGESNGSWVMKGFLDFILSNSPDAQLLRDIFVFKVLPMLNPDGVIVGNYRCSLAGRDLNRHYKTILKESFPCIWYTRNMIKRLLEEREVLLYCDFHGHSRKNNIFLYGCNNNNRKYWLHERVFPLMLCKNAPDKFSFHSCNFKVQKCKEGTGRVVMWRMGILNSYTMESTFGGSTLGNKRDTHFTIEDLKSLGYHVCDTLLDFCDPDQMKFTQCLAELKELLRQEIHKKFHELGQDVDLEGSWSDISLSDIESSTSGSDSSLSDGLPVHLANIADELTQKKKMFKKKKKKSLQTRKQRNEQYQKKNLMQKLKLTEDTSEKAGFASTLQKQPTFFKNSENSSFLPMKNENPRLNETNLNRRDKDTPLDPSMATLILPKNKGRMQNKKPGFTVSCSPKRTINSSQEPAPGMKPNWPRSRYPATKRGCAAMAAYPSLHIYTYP
Experiment: Inhibition of AGBL2 (unknown origin) expressed in HEK293 stably expressing TIG1 assessed as reduction in de-tyrosinated to tyrosinated ratio of alpha-tubulin at 1 uM incubated for 2 hrs by Western blotting analysis relative to control
Format: cell-based

Row | Structure (SMILES) | inhibition (active/inactive call)
1 | CC(C)c1ccc(Sc2ccc(F)cc2CC(=O)O)cc1 | Active
2 | Cc1cc(F)cnc1CC(=O)O | Active
3 | Cc1cc(C(F)(F)F)cnc1CC(=O)O | Active
4 | O=C(O)Cc1cccc(C(=O)Nc2ccc3c(c2)OCO3)c1 | Active
